Measurements as given in DBAASP.
In brackets after ≈: the same amount, converted by molar mass. Several values for one entry are separate records, joined by “and”; a condition that tells them apart may be missing. Equal entries are not always repeated. Values belong to the compound of their own block, whether it stands above or below them.

How the values were obtained:
Assay in all cases: ≥ marks a high value that may be exact or a test limit, other limits are often not marked, values filed in µg/mL are converted to µM
[1] = test system: Staphylococcus epidermidis ATCC 14990
[2] = test system: Salmonella enterica subsp. enterica serovar Typhimurium ATCC 700931
[3] = test system: Pseudomonas aeruginosa ATCC 10145
Escherichia coli D31 = test system: Escherichia coli D31
[4] = test system: Staphylococcus aureus ATCC 27660
[5] = test system: Pyricularia oryzae MAFF 101511
[6] = test system: Clavibacter michiganensis subsp. michiganensis MAFF 301254
[7] = test system: Xanthomonas oryzae pv. oryzae MAFF 311018
Klebsiella pneumoniae = test system: Klebsiella pneumoniae
Staphylococcus aureus = test system: Staphylococcus aureus
Vibrio cholerae N16961 = test system: Vibrio cholerae N16961
[8] = test system: Enterococcus faecalis KCTC 2011
[9] = test system: Proteus vulgaris KCTC 2433
[10] = test system: Staphylococcus epidermidis ATCC 12228
[11] = test system: Escherichia coli ATCC 25922
[12] = test system: Bacillus subtilis KCTC 3068
[13] = test system: Staphylococcus aureus KCTC 1621
[14] = test system: Salmonella typhimurium KCTC 1926
[15] = test system: Pseudomonas aeruginosa KCTC 1637
[16] = test system: Staphylococcus epidermidis KCTC 1917
[17] = test system: Escherichia coli KCTC 1682
[18] = test system: Staphylococcus aureus ATCC 25923
[19] = test system: Enterococcus faecalis PCM 2673
[20] = test system: Pseudomonas aeruginosa ATCC 9027
[21] = test system: Candida albicans ATCC 10231
[22] = test system: Escherichia coli ATCC 11229
[23] = test system: Klebsiella pneumoniae ATCC 13866
[24] = test system: Staphylococcus aureus ATCC 29213
[25] = test system: Escherichia coli ATCC 35218
[26] = test system: Salmonella enterica serovar Typhimurium
[27] = test system: Pseudomonas aeruginosa ATCC 27853
[28] = test system: Staphylococcus aureus ATCC 33591
[29] = test system: Escherichia coli DH5alpha
[30] = test system: Pseudomonas aeruginosa NBRC 13275
[31] = test system: Staphylococcus aureus NBRC 13276
[32] = test system: Micrococcus luteus ATCC 49732
[33] = test system: Aeromonas hydrophila ATCC 35654
Escherichia coli BL21AI = test system: Escherichia coli BL21AI
[34] = test system: Micrococcus luteus DSM 1790

MIC [22]: ≥ 35.9 µM | MIC [10]: 4.49 µM (≈ 8 µg/mL) | MIC [18]: 35.9 µM (≈ 64 µg/mL) | MIC [23]: ≥ 35.9 µM | MIC [24]: 35.9 µM (≈ 64 µg/mL) | MIC [25]: ≥ 35.9 µM | MIC [26]: ≥ 35.9 µM | MIC [27]: 18 µM (≈ 32 µg/mL) | MIC [28]: 4.49 µM (≈ 8 µg/mL)
Compound: CC[C@H](C)[C@H](NC(=O)[C@H](C)NC(=O)[C@H](CCCN=C(N)N)NC(=O)[C@H](CC(C)C)NC(=O)[C@@H](NC(=O)[C@H](CO)NC(=O)CN)C(C)C)C(=O)N[C@@H](CCSC)C(=O)N[C@@H](CCCN=C(N)N)C(=O)N[C@@H](CCSC)C(=O)N[C@@H](Cc1ccccc1)C(=O)N[C@@H](C)C(=O)N[C@@H](CCCCN)C(=O)N[C@@H](CC(C)C)C(=O)N[C@@H](CCSC)C(=O)NCC(=O)O [GSVLRAIMRMFAKLMG]

MIC [29]: ≥ 200 µM | MIC [30]: ≥ 200 µM | MIC [31]: ≥ 400 µM
Compound: CC[C@H](C)[C@H](NC(=O)[C@H](CCC(=O)O)NC(=O)CNC(=O)[C@@H](NC(=O)[C@H](Cc1ccccc1)NC(=O)[C@H](C)NC(=O)[C@H](CCCCN)NC(=O)CNC(=O)[C@H](Cc1ccccc1)NC(=O)[C@H](CCCCN)NC(=O)[C@H](CCCCN)NC(=O)[C@H](C)NC(=O)[C@H](CO)NC(=O)[C@H](Cc1cnc[nH]1)NC(=O)[C@H](CC(C)C)NC(=O)[C@H](Cc1ccccc1)NC(=O)[C@H](CCCCN)NC(C)=O)C(C)C)C(=O)N[C@@H](CCSC)C(=O)N[C@@H](CC(N)=O)C(=O)N[C@@H](CO)C(N)=O [KFLHSAKKFGKAFVGEIMNS]

MIC [32]: 7.2 µM (≈ 15 µg/mL) | MIC [18]: > 20 µM | MIC [11]: 12 µM (≈ 25.1 µg/mL) | MIC [33]: 20 µM (≈ 41.8 µg/mL)
Compound: CC[C@H](C)[C@H](NC(=O)[C@H](CC(C)C)NC(=O)[C@H](CCC(N)=O)NC(=O)[C@@H](NC(=O)[C@H](CCCCN)NC(=O)[C@@H](NC(=O)[C@H](CS)NC(=O)[C@H](CCCCN)NC(=O)[C@@H](N)CCCN=C(N)N)C(C)C)C(C)C)C(=O)N[C@@H](CCCCN)C(=O)N[C@@H](CC(N)=O)C(=O)NCC(=O)N[C@@H](CCCN=C(N)N)C(=O)N[C@@H](CCC(N)=O)C(=O)N[C@H](C(=O)N[C@H](C(=O)N[C@@H](C)C(=O)N[C@@H](Cc1ccccc1)C(N)=O)[C@@H](C)O)C(C)C [RKCVKVQLIKNGRQVTAF]

MIC (Escherichia coli BL21AI): 28.2 µM (≈ 62.5 µg/mL) | MIC [34]: 14.1 µM (≈ 31.3 µg/mL)
Compound: CC[C@H](C)[C@H](NC(=O)[C@H](CCCN=C(N)N)NC(=O)[C@H](CCCN=C(N)N)NC(=O)[C@@H]1CCCN1C(=O)[C@@H]1CCCN1C(=O)[C@H](Cc1cnc[nH]1)NC(=O)[C@@H]1CCCN1C(=O)[C@H](CCCN=C(N)N)NC(=O)[C@@H]1CCCN1C(=O)[C@H](CC(C)C)NC(=O)[C@H](Cc1ccc(O)cc1)NC(=O)[C@@H]1CCCN1C(=O)[C@@H]1CCCN1C(=O)[C@H](CCCCN)NC(=O)[C@H](CC(=O)O)NC(=O)[C@@H](N)C(C)C)C(=O)N[C@@H](Cc1ccc(O)cc1)C(=O)N[C@@H](CC(N)=O)C(=O)O [VDKPPYLPRPHPPRRIYN]

More lines, now with the values behind:

Compound: CC[C@H](C)[C@H](NC(=O)[C@H](C)N)C(=O)N[C@@H](Cc1c[nH]c2ccccc12)C(=O)N[C@@H](CCCCN)C(=O)N[C@@H](CCCCN)C(=O)N[C@H](C(=O)N[C@H](C(=O)N[C@@H](CCCCN)C(=O)N[C@@H](CCCCN)C(=O)N[C@H](C(=O)N[C@H](C(=O)N[C@@H](CCCCN)C(=O)N[C@@H](CO)C(=O)N[C@@H](C)C(=O)N[C@@H](CCCCN)C(=O)N[C@@H](CCCCN)C(=O)N[C@H](C(=O)NCC(=O)O)[C@@H](C)CC)[C@@H](C)CC)[C@@H](C)CC)[C@@H](C)CC)[C@@H](C)CC [AIWKKIIKKIIKSAKKIG]
MIC [1]: 0.94 µM (≈ 1.94 µg/mL) | MIC [2]: 1.88 µM (≈ 3.89 µg/mL) | MIC [3]: 1.88 µM (≈ 3.89 µg/mL) | MIC (Escherichia coli D31): 0.94 µM (≈ 1.94 µg/mL) | MIC [4]: 1.88 µM (≈ 3.89 µg/mL)

Compound: CC[C@H](C)[C@H](NC(=O)[C@@H](N)Cc1ccccc1)C(=O)N[C@@H](Cc1ccccc1)C(=O)N[C@@H](CC(C)C)C(=O)N1CCC[C@H]1C(=O)N[C@H](C(=O)N[C@@H](Cc1ccccc1)C(=O)N[C@@H](CCCN=C(N)N)C(=O)N[C@@H](CCCN=C(N)N)C(=O)N1CCC[C@H]1C(=O)N[C@H](C(=O)N[C@@H](CO)C(N)=O)C(C)C)[C@@H](C)CC [FIFLPIFRRPVS]
MIC [5]: ≥ 85.8 µM | MIC [6]: 10.7 µM (≈ 16 µg/mL) | MIC [7]: ≥ 85.8 µM

Compound: CC[C@H](C)[C@@H]1NC(=O)CNC(=O)[C@@H](NC(=O)[C@H](CC(C)C)NC(=O)[C@@H](NC(=O)[C@H](CO)NC(=O)[C@@H]2CCCN2C(=O)[C@H](CC(C)C)NC(=O)[C@@H](NC(=O)[C@H](CCCCN)NC(=O)[C@H](C)NC(=O)CNC(=O)[C@@H](NC(=O)[C@H](CCCCN)NC(=O)[C@H](CC(C)C)NC(=O)[C@H](CC(C)C)NC(=O)[C@H](C)NC(=O)CNC(=O)[C@H](CC(C)C)NC(=O)[C@@H](N)Cc2ccccc2)[C@@H](C)CC)C(C)C)C(C)C)CSSC[C@@H](C(N)=O)NC(=O)[C@H](CCCCN)NC(=O)[C@H](CCCCN)NC(=O)[C@H](Cc2ccccc2)NC1=O [FLGALLKIGAKVLPSVLCGIFKKC]
MIC (Klebsiella pneumoniae): 15 µM (≈ 37.7 µg/mL) | MIC (Staphylococcus aureus): 4 µM (≈ 10.1 µg/mL) | MIC (Vibrio cholerae N16961): 4.5 µM (≈ 11.3 µg/mL)

Compound: CC[C@H](C)[C@H](NC(=O)CN)C(=O)NCC(=O)N[C@@H](CCCCN)C(=O)N[C@@H](Cc1c[nH]c2ccccc12)C(=O)N[C@@H](CC(C)C)C(=O)N[C@@H](Cc1cnc[nH]1)C(=O)N[C@@H](CO)C(=O)N[C@@H](C)C(=O)N[C@@H](CCCCN)C(=O)N[C@@H](CCCCN)C(=O)N[C@@H](Cc1ccccc1)C(=O)NCC(=O)N[C@@H](CCCCN)C(=O)N[C@@H](C)C(=O)N[C@@H](Cc1ccccc1)C(=O)N[C@H](C(=O)NCC(=O)N[C@@H](CCC(=O)O)C(=O)N[C@H](C(=O)N[C@@H](CCSC)C(=O)N[C@@H](CC(N)=O)C(=O)N[C@@H](CO)C(=O)O)[C@@H](C)CC)C(C)C [GIGKWLHSAKKFGKAFVGEIMNS]
MIC [8]: 16 µM (≈ 40.1 µg/mL) | MIC [9]: ≥ 45.3 µM | MIC [10]: 20 µM and 40 µM | MIC [11]: 8 µM and 20 µM | MIC [12]: 8 µM (≈ 20 µg/mL) | MIC [13]: 22.6 µM (≈ 56.7 µg/mL) | MIC [14]: 22.6 µM (≈ 56.7 µg/mL) | MIC [15]: ≥ 32 µM | MIC [16]: 16 µM (≈ 40.1 µg/mL) | MIC [17]: ≥ 32 µM

Compound: CC[C@H](C)[C@H](NC(=O)[C@H](CCCCN)NC(=O)[C@H](CCCCN)NC(=O)[C@@H](NC(=O)[C@@H](NC(=O)[C@H](CC(=O)O)NC(=O)[C@H](Cc1ccccc1)NC(=O)[C@H](CC(C)C)NC(=O)CN)[C@@H](C)CC)[C@@H](C)CC)C(=O)N[C@@H](C)C(=O)N[C@@H](CCC(=O)O)C(=O)N[C@@H](C)C(=O)N[C@@H](Cc1ccccc1)C(N)=O [GLFDIIKKIAEAF]
MIC [18]: 21.8 µM (≈ 32 µg/mL) | MIC [11]: 43.7 µM (≈ 64 µg/mL) | MIC [19]: ≥ 43.7 µM | MIC [20]: > 350 µM | MIC [21]: 21.8 µM (≈ 32 µg/mL)
